According to publication PMC9145741, “Bioprospecting for Thermozymes and Characterization of a Novel Lipolytic Thermozyme Belonging to the SGNH/GDSL Family of Hydrolases” (International Journal of Molecular Sciences, 2022):

Test system: T1, LipB12_A11
T1 construct: EcoRV fosmid fragment subcloned in pJET1.2, E. coli T7 Express; no tag mentioned; heat step, ammonium sulphate, Superdex 75
Assay: p-nitrophenol release at […] nm, Michaelis-Menten non-linear regression
Format: biochemical
Settings: 60 °C, pH 9; 0.002-2 mM substrate

CCCCCCCCCCCC(=O)Oc1ccc([N+](=O)[O-])cc1 [pNP-laurate]
Km: 17.3 ± 3.51 µM
